Measurements as given in US4977179A, “Proline derivatives” (Otsuka Pharmaceutical Factory, Inc., priority 1986, dated 1990).

Molecular target: T1, angiotensin-converting enzyme (ACE) (Rattus norvegicus, UniProt P47820)
T1 construct: enzyme solution prepared from rat lung; from tissue; host or cells: rat lung
T1 sequence (P47820 36-1313): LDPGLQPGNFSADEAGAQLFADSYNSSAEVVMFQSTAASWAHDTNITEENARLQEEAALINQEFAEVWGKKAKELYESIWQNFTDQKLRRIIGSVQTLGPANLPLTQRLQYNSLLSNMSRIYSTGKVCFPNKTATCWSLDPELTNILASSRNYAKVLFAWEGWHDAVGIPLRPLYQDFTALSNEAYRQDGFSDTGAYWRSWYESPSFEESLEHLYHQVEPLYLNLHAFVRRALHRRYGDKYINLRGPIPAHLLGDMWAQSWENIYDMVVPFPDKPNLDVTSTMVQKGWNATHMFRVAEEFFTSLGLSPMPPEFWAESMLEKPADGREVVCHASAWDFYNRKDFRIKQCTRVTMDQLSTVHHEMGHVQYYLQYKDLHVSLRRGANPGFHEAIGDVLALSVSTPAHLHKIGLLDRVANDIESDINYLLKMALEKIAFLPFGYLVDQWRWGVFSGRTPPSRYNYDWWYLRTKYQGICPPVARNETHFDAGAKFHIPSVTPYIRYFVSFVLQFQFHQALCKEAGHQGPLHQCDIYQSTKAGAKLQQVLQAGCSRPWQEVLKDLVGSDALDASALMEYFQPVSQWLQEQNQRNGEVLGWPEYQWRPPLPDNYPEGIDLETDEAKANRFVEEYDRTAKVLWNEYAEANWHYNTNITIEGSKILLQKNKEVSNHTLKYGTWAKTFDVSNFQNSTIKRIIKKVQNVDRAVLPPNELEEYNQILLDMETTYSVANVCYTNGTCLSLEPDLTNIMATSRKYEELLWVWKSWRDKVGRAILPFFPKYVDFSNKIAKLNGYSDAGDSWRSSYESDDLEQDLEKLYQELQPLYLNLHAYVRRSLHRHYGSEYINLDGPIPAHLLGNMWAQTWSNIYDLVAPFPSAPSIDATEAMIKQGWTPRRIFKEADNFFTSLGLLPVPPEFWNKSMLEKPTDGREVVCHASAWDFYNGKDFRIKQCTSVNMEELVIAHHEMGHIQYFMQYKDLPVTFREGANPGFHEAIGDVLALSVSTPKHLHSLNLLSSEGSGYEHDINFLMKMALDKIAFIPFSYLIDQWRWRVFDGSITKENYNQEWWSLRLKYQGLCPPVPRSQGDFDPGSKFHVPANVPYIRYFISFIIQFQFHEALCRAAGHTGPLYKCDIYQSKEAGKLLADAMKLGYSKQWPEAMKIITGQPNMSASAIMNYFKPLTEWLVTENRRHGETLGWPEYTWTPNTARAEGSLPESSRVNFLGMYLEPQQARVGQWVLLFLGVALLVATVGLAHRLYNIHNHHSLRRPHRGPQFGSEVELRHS
Assay: Inhibitory activity against angiotensin-converting enzyme (ACE)
Assay type: biochemical
Details: enzyme solution from rat lung; substrate hippuryl-histidyl-leucine; phosphate buffer pH 8.3, 37° C., HPLC of hippuric acid; samples all used in the form of dicarboxylic acid
Protocol: Inhibitory activity against angiotensin-converting enzyme (ACE)
A […] of the compound of the present invention was dissolved in 50 ml of a phosphate buffer (pH 8.3). The solution was diluted with the same phosphate buffer as above to prepare a sample solution.
A 100 μl quantity of an enzyme solution prepared from rat lung was mixed with 100 μl of the sample solution. The mixture was gently shaken at 37° C. for 10 minutes. To the mixture was added 100 μl of a solution containing 6.99 mM of hippuryl-histidyl-leucine (product of Peptide Institute, Inc., Japan) as a substrate. The resulting mixture was incubated at 37° C. for 10 minutes. The reaction was terminated by addition of 100 μl of a 10% metaphosphoric acid to the reaction mixture and the mixture was neutralized with 1N-sodium hydroxide. A 10 μl quantity of the resulting mixture was subjected to high performance liquid chromatography (HPLC) for analysis. The area valve (S) of the hippuric acid formed by the reaction was measured. A control area valve (R) was measured by repeating the same procedure as above except that 100 μl of phosphate buffer (pH 8.3) was used in place of the sample solution.
A percent inhibition was calculated by the following equation: [formula] […]

IC50: 0.114 nM
SMILES: CCCCOCCSC[C@H](NC(C)C(=O)N1CCC[C@H]1C(=O)O)C(=O)O (single isomer, unassigned) [Example 22]
